Measurements published in the supplement of paper PMC10307832.

Key:
Assay in all cases: relative viability (nuclei count vs DMSO), 5 days (fraction); higher = more cells survive
NCI-H1355 = tested on: NCI-H1355
In short: (§1)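 Lung cancer cell lines, seeded in 1536-well plates, were treated the following day by pin tool with a single drug or with five library-drug doses (not always all listed) in √10 steps on top of a fixed anchor-drug dose. Cells were fixed and nuclei stained in one step after 5 days, and nuclei were counted. Relative viability is the nuclei count for treated wells divided by that for vehicle wells, reported as medians of duplicate plates.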

NCI-H1650 = tested on: NCI-H1650
In short: as §1

BEN = tested on: BEN
In short: as §1

CAL-12T = tested on: CAL-12T
In short: as §1

NCI-H1975 = tested on: NCI-H1975
In short: as §1

NCI-H2023 = tested on: NCI-H2023
In short: as §1

HCC-366 = tested on: HCC-366
In short: as §1

SK-LU-1 = tested on: SK-LU-1
In short: as §1

NCI-H1563 = tested on: NCI-H1563
In short: as §1

NCI-H1437 = tested on: NCI-H1437
In short: as §1

LU99A = tested on: LU99A
In short: as §1

NCI-H2085 = tested on: NCI-H2085
In short: as §1

NCI-H838 = tested on: NCI-H838
In short: as §1

COR-L23 = tested on: COR-L23
In short: as §1

NCI-H1651 = tested on: NCI-H1651
In short: as §1

NCI-H441 = tested on: NCI-H441
In short: as §1

NCI-H460 = tested on: NCI-H460
In short: as §1

NCI-H1734 = tested on: NCI-H1734
In short: as §1

LOU-NH91 = tested on: LOU-NH91
In short: as §1

## Cc1sc2c(c1C)C(c1ccc(Cl)cc1)=N[C@@H](CC(=O)OC(C)(C)C)c1nnc(C)n1-2 [JQ1] + CC(C)C[C@H](NC(=O)[C@H](Cc1ccccc1)NC(=O)c1cnccn1)B(O)O [Bortezomib] (partner 0.002 µM)
NCI-H1355; first compound 0.04 µM
  relative viability: 1.17
NCI-H1355; first compound 0.1265 µM
  relative viability: 1.07
NCI-H1355; first compound 0.4 µM
  relative viability: 1.05
NCI-H1355; first compound 1.265 µM
  relative viability: 0.86
NCI-H1355; first compound 4 µM
  relative viability: 0.669
NCI-H1650; first compound 0.04 µM
  relative viability: 0.177
NCI-H1650; first compound 0.1265 µM
  relative viability: 0.191
NCI-H1650; first compound 0.4 µM
  relative viability: 0.187
NCI-H1650; first compound 1.265 µM
  relative viability: 0.175
NCI-H1650; first compound 4 µM
  relative viability: 0.208
BEN; first compound 0.04 µM
  relative viability: 0.627
BEN; first compound 0.1265 µM
  relative viability: 0.605
BEN; first compound 0.4 µM
  relative viability: 0.463
BEN; first compound 1.265 µM
  relative viability: 0.322
BEN; first compound 4 µM
  relative viability: 0.221
CAL-12T; first compound 0.04 µM
  relative viability: 1.06
CAL-12T; first compound 0.4 µM
  relative viability: 0.638
CAL-12T; first compound 1.265 µM
  relative viability: 0.415
CAL-12T; first compound 4 µM
  relative viability: 0.317
NCI-H1975; first compound 0.04 µM
  relative viability: 0.355
NCI-H1975; first compound 0.1265 µM
  relative viability: 0.258
NCI-H1975; first compound 0.4 µM
  relative viability: 0.317
NCI-H1975; first compound 1.265 µM
  relative viability: 0.177
NCI-H1975; first compound 4 µM
  relative viability: 0.152
NCI-H2023; first compound 0.04 µM
  relative viability: 0.966
NCI-H2023; first compound 0.1265 µM
  relative viability: 0.57
NCI-H2023; first compound 0.4 µM
  relative viability: 0.437
NCI-H2023; first compound 1.265 µM
  relative viability: 0.263
NCI-H2023; first compound 4 µM
  relative viability: 0.193
HCC-366; first compound 0.04 µM
  relative viability: 1.08
HCC-366; first compound 0.4 µM
  relative viability: 1.03
HCC-366; first compound 1.265 µM
  relative viability: 0.585
HCC-366; first compound 4 µM
  relative viability: 0.23
SK-LU-1; first compound 0.04 µM
  relative viability: 1.37
SK-LU-1; first compound 0.1265 µM
  relative viability: 0.693
SK-LU-1; first compound 0.4 µM
  relative viability: 0.941
SK-LU-1; first compound 1.265 µM
  relative viability: 0.28
SK-LU-1; first compound 4 µM
  relative viability: 0.205
NCI-H1563; first compound 0.04 µM
  relative viability: 0.909
NCI-H1563; first compound 0.1265 µM
  relative viability: 0.619
NCI-H1563; first compound 0.4 µM
  relative viability: 0.642
NCI-H1563; first compound 1.265 µM
  relative viability: 0.544
NCI-H1563; first compound 4 µM
  relative viability: 0.621
NCI-H1437; first compound 0.04 µM
  relative viability: 0.42
NCI-H1437; first compound 0.1265 µM
  relative viability: 0.369
NCI-H1437; first compound 0.4 µM
  relative viability: 0.276
NCI-H1437; first compound 1.265 µM
  relative viability: 0.228
NCI-H1437; first compound 4 µM
  relative viability: 0.194
LU99A; first compound 0.04 µM
  relative viability: 1.32
LU99A; first compound 0.1265 µM
  relative viability: 0.8
LU99A; first compound 0.4 µM
  relative viability: 0.802
LU99A; first compound 1.265 µM
  relative viability: 0.426
LU99A; first compound 4 µM
  relative viability: 0.265
NCI-H2085; first compound 0.04 µM
  relative viability: 0.999
NCI-H2085; first compound 0.1265 µM
  relative viability: 0.861
NCI-H2085; first compound 0.4 µM
  relative viability: 0.893
NCI-H2085; first compound 1.265 µM
  relative viability: 0.61
NCI-H2085; first compound 4 µM
  relative viability: 0.564
NCI-H838; first compound 0.04 µM
  relative viability: 0.69
NCI-H838; first compound 0.1265 µM
  relative viability: 0.426
NCI-H838; first compound 0.4 µM
  relative viability: 0.31
NCI-H838; first compound 1.265 µM
  relative viability: 0.208
NCI-H838; first compound 4 µM
  relative viability: 0.154
COR-L23; first compound 0.04 µM
  relative viability: 0.981
COR-L23; first compound 0.1265 µM
  relative viability: 0.673
COR-L23; first compound 0.4 µM
  relative viability: 0.792
COR-L23; first compound 1.265 µM
  relative viability: 0.579
COR-L23; first compound 4 µM
  relative viability: 0.17
NCI-H1651; first compound 0.04 µM
  relative viability: 0.919
NCI-H1651; first compound 0.1265 µM
  relative viability: 0.781
NCI-H1651; first compound 0.4 µM
  relative viability: 0.842
NCI-H1651; first compound 1.265 µM
  relative viability: 0.9
NCI-H1651; first compound 4 µM
  relative viability: 0.635
NCI-H441; first compound 0.04 µM
  relative viability: 0.611
NCI-H441; first compound 0.1265 µM
  relative viability: 0.363
NCI-H441; first compound 0.4 µM
  relative viability: 0.443
NCI-H441; first compound 1.265 µM
  relative viability: 0.189
NCI-H441; first compound 4 µM
  relative viability: 0.174
NCI-H460; first compound 0.04 µM
  relative viability: 1.05
NCI-H460; first compound 0.1265 µM
  relative viability: 0.611
NCI-H460; first compound 0.4 µM
  relative viability: 0.456
NCI-H460; first compound 1.265 µM
  relative viability: 0.224
NCI-H460; first compound 4 µM
  relative viability: 0.212
NCI-H1734; first compound 0.04 µM
  relative viability: 0.967
NCI-H1734; first compound 0.1265 µM
  relative viability: 0.788
NCI-H1734; first compound 0.4 µM
  relative viability: 0.878
NCI-H1734; first compound 1.265 µM
  relative viability: 0.597
NCI-H1734; first compound 4 µM
  relative viability: 0.474
LOU-NH91; first compound 0.04 µM
  relative viability: 0.525
LOU-NH91; first compound 0.1265 µM
  relative viability: 0.476
LOU-NH91; first compound 0.4 µM
  relative viability: 0.428
LOU-NH91; first compound 1.265 µM
  relative viability: 0.3
LOU-NH91; first compound 4 µM
  relative viability: 0.327
